Reference: ChEMBL document CHEMBL1128608, “Syntheses and biological properties of novel aza-podophyllotoxin analogs prossessing pronounced antitumor activity” (Bioorg Med Chem Lett, 1995)
≈ marks a conversion by molar mass, not a printed value.

test system: L1210; assay: Tested for in vitro cytotoxicity against L1210 murine leukemia cells in mice; assay type: functional, cell-based; settings: Mus musculus

Structure (SMILES) | IC50 [µg/mL]
COc1cc(OC)cc([C@@H]2c3cc4c(cc3N[C@H]3COC(=O)N23)OCCO4)c1 | 0.028 (≈ 0.0728 µM)
COc1cc(OC)cc([C@@H]2c3cc4c(cc3N[C@@H]3COC(=O)N23)OCO4)c1 | 0.22 (≈ 0.594 µM)
COc1cc([C@@H]2c3cc4c(cc3N[C@@H]3COC(=O)N23)OCCO4)cc(OC)c1OC | 0.052 (≈ 0.125 µM)
COc1cc([C@@H]2c3cc4c(cc3N(N)[C@@H]3COC(=O)N23)OCO4)cc(OC)c1OC | 0.75 (≈ 1.81 µM)
COc1cc([C@@H]2c3cc4c(cc3N[C@H]3COC(=O)N23)OCO4)cc(OC)c1OC | 0.05 (≈ 0.125 µM)
COc1cc([C@@H]2c3cc4c(cc3N[C@H]3COC(=O)N23)OCCO4)cc(OC)c1OC | 0.055 (≈ 0.133 µM)

test system: Mus musculus; assay: Assayed for antitumor activity against P388 leukemia in mice at a dose of 250 mg/kg/injection; Toxic, T/C<85%; assay type: toxicity, organism-based; settings: in vivo

Structure (SMILES) | T/C [%]
COc1cc([C@@H]2c3cc4c(cc3N[C@@H]3COC(=O)N23)OCCO4)cc(OC)c1OC | < 85

test system: Mus musculus; assay: Assayed for antitumor activity against P388 leukemia in mice at a dose of 25 mg/kg/injection; assay type: functional; settings: not given

Structure (SMILES) | T/C [%]
COc1cc(OC)cc([C@@H]2c3cc4c(cc3N[C@H]3COC(=O)N23)OCCO4)c1 | 147
COc1cc(OC)cc([C@@H]2c3cc4c(cc3N[C@@H]3COC(=O)N23)OCO4)c1 | 137
COc1cc([C@@H]2c3cc4c(cc3N[C@@H]3COC(=O)N23)OCCO4)cc(OC)c1OC | 153
COc1cc([C@@H]2c3cc4c(cc3N(N)[C@@H]3COC(=O)N23)OCO4)cc(OC)c1OC | 122
COc1cc([C@@H]2c3cc4c(cc3N[C@H]3COC(=O)N23)OCO4)cc(OC)c1OC | 150
COc1cc([C@@H]2c3cc4c(cc3N[C@H]3COC(=O)N23)OCCO4)cc(OC)c1OC | 156

test system: Mus musculus; assay: Assayed for antitumor activity against P388 leukemia in mice at a dose of 50 mg/kg/injection; assay type: functional; settings: not given

Structure (SMILES) | T/C [%]
COc1cc(OC)cc([C@@H]2c3cc4c(cc3N[C@H]3COC(=O)N23)OCCO4)c1 | 199
COc1cc(OC)cc([C@@H]2c3cc4c(cc3N[C@@H]3COC(=O)N23)OCO4)c1 | 159
COc1cc([C@@H]2c3cc4c(cc3N[C@@H]3COC(=O)N23)OCCO4)cc(OC)c1OC | 165
COc1cc([C@@H]2c3cc4c(cc3N(N)[C@@H]3COC(=O)N23)OCO4)cc(OC)c1OC | 147
COc1cc([C@@H]2c3cc4c(cc3N[C@H]3COC(=O)N23)OCO4)cc(OC)c1OC | 161
COc1cc([C@@H]2c3cc4c(cc3N[C@H]3COC(=O)N23)OCCO4)cc(OC)c1OC | 177

test system: Mus musculus; assay: Assayed for antitumor activity against P388 leukemia in mice at a dose of 5 mg/kg/injection; assay type: functional; settings: not given

Structure (SMILES) | T/C [%]
COc1cc(OC)cc([C@@H]2c3cc4c(cc3N[C@H]3COC(=O)N23)OCCO4)c1 | 114
COc1cc([C@@H]2c3cc4c(cc3N[C@@H]3COC(=O)N23)OCCO4)cc(OC)c1OC | 119
COc1cc([C@@H]2c3cc4c(cc3N[C@H]3COC(=O)N23)OCO4)cc(OC)c1OC | 124
COc1cc([C@@H]2c3cc4c(cc3N[C@H]3COC(=O)N23)OCCO4)cc(OC)c1OC | 139

test system: Mus musculus; assay: Assayed for antitumor activity against P388 leukemia in mice at a dose of 100 mg/kg/injection; assay type: functional; settings: not given

Structure (SMILES) | T/C [%]
COc1cc(OC)cc([C@@H]2c3cc4c(cc3N[C@@H]3COC(=O)N23)OCO4)c1 | 214
COc1cc([C@@H]2c3cc4c(cc3N[C@@H]3COC(=O)N23)OCCO4)cc(OC)c1OC | 233
COc1cc([C@@H]2c3cc4c(cc3N(N)[C@@H]3COC(=O)N23)OCO4)cc(OC)c1OC | 147
COc1cc([C@@H]2c3cc4c(cc3N[C@H]3COC(=O)N23)OCO4)cc(OC)c1OC | 172

test system: Mus musculus; assay: Assayed for antitumor activity against P388 leukemia in mice at a dose of 100 mg/kg/injection; Toxic, T/C<85%; assay type: toxicity, organism-based; settings: in vivo

Structure (SMILES) | T/C [%]
COc1cc(OC)cc([C@@H]2c3cc4c(cc3N[C@H]3COC(=O)N23)OCCO4)c1 | < 85
COc1cc([C@@H]2c3cc4c(cc3N[C@H]3COC(=O)N23)OCCO4)cc(OC)c1OC | < 85

test system: Mus musculus; assay: Assayed for antitumor activity against P388 leukemia in mice at a dose of 10 mg/kg/injection; assay type: functional; settings: not given

Structure (SMILES) | T/C [%]
COc1cc(OC)cc([C@@H]2c3cc4c(cc3N[C@H]3COC(=O)N23)OCCO4)c1 | 131
COc1cc(OC)cc([C@@H]2c3cc4c(cc3N[C@@H]3COC(=O)N23)OCO4)c1 | 123
COc1cc([C@@H]2c3cc4c(cc3N[C@@H]3COC(=O)N23)OCCO4)cc(OC)c1OC | 131
COc1cc([C@@H]2c3cc4c(cc3N(N)[C@@H]3COC(=O)N23)OCO4)cc(OC)c1OC | 111
COc1cc([C@@H]2c3cc4c(cc3N[C@H]3COC(=O)N23)OCO4)cc(OC)c1OC | 128
COc1cc([C@@H]2c3cc4c(cc3N[C@H]3COC(=O)N23)OCCO4)cc(OC)c1OC | 144

test system: Mus musculus; assay: Assayed for antitumor activity against P388 leukemia in mice at a dose of 2.5 mg/kg/injection; assay type: functional; settings: not given

Structure (SMILES) | T/C [%]
COc1cc([C@@H]2c3cc4c(cc3N[C@H]3COC(=O)N23)OCO4)cc(OC)c1OC | 111

test system: Mus musculus; assay: Assayed for antitumor activity against P388 leukemia in mice at a dose of 250 mg/kg/injection; assay type: functional; settings: not given

Structure (SMILES) | T/C [%]
COc1cc([C@@H]2c3cc4c(cc3N(N)[C@@H]3COC(=O)N23)OCO4)cc(OC)c1OC | 161
COc1cc([C@@H]2c3cc4c(cc3N[C@H]3COC(=O)N23)OCO4)cc(OC)c1OC | >326

test system: Mus musculus; assay: Tested for antitumor activity against B16 melanoma in mice, at a dose of 100 mg/kg given intraperitoneally; assay type: functional; settings: route intraperitoneal

Structure (SMILES) | T/C [%]
COc1cc([C@@H]2c3cc4c(cc3N[C@H]3COC(=O)N23)OCO4)cc(OC)c1OC | 197

test system: Mus musculus; assay: Tested for antitumor activity against B16 melanoma in mice, at a dose of 50 mg/kg given intraperitoneally; assay type: functional; settings: route intraperitoneal

Structure (SMILES) | T/C [%]
COc1cc([C@@H]2c3cc4c(cc3N[C@H]3COC(=O)N23)OCO4)cc(OC)c1OC | 153

test system: Mus musculus; assay: Tested for antitumor activity against vincristine-resistant P388 leukemia (P388/VCR) in mice, at a dose of 10 mg/kg given intraperitoneally; assay type: functional; settings: route intraperitoneal

Structure (SMILES) | T/C [%]
COc1cc([C@@H]2c3cc4c(cc3N[C@H]3COC(=O)N23)OCO4)cc(OC)c1OC | 152

test system: Mus musculus; assay: Tested for antitumor activity against vincristine-resistant P388 leukemia (P388/VCR) in mice, at a dose of 2.5 mg/kg given intraperitoneally; assay type: functional; settings: route intraperitoneal

Structure (SMILES) | T/C [%]
COc1cc([C@@H]2c3cc4c(cc3N[C@H]3COC(=O)N23)OCO4)cc(OC)c1OC | 113

test system: Mus musculus; assay: Tested for antitumor activity against vincristine-resistant P388 leukemia (P388/VCR) in mice, at a dose of 25 mg/kg given intraperitoneally; assay type: functional; settings: route intraperitoneal

Structure (SMILES) | T/C [%]
COc1cc([C@@H]2c3cc4c(cc3N[C@H]3COC(=O)N23)OCO4)cc(OC)c1OC | 152

test system: Mus musculus; assay: Tested for antitumor activity against vincristine-resistant P388 leukemia (P388/VCR) in mice, at a dose of 5 mg/kg given intraperitoneally; assay type: functional; settings: route intraperitoneal

Structure (SMILES) | T/C [%]
COc1cc([C@@H]2c3cc4c(cc3N[C@H]3COC(=O)N23)OCO4)cc(OC)c1OC | 129

test system: not listed separately; assay: Evaluated for the inhibition of microtubule assembly prepared from bovine brain; assay type: functional, Bos taurus; settings: not given

Structure (SMILES) | IC50 [µg/mL]
COc1cc([C@@H]2c3cc4c(cc3N[C@H]3COC(=O)N23)OCO4)cc(OC)c1OC | 0.42 (≈ 1.05 µM)
